Values of other authors, collected in paper PMC9271465 (ESMO Open, 2022).
Where two headings read alike, the source gives them in different places.

How the values were obtained:
[1] = cited from earlier work
[2] = test system: EGFR T790M+ NSCLC; conditions: cited from earlier work
[3] = test system: EGFR-mutated NSCLC; conditions: cited from earlier work
[4] = central nervous system activity
[5] = metastatic EGFR T790M+ NSCLC progressed during or after first-line EGFR-TKI
[6] = EGFR T790M+ advanced NSCLC after progression on prior EGFR-TKI

For `Cc1cc(C(=O)Nc2nc3cccc(Cl)c3n2[C@@H]2CCCCN(C(=O)/C=C/CN(C)C)C2)ccn1` [nazartinib], the “most common TRAEs” value [1] is given as “rash/diarrhea”.

For `C=CC(=O)Nc1cc(Nc2nccc(-c3cn(C)c4ccccc34)n2)c(OCC(F)(F)F)nc1N(C)CCN(C)C` [furmonertinib], the ORR ([2]; EGFR T790M-mutated NSCLC) is given as 74% and the “median PFS” value ([2]; EGFR T790M-mutated NSCLC) is given as 9.6 months.

For `C=CC(=O)Nc1cc(Nc2nccc(-c3cn(C)c4ccccc34)n2)c(OC)cc1N(C)CCN(C)C` [osimertinib], the “intracranial DCR” value [2, 4] is listed as 92%, the “intracranial ORR” value [2, 4] is listed as 54% and the ORR [2, 5] is listed as 61%-71. For the same compound, the “median PFS” value [2, 5] was 9.6-15.2 months.

In the case of `C#Cc1cccc(Nc2ncnc3cc(OCCOC)c(OCCOC)cc23)c1` [erlotinib], the “median overall survival (OS)” value ([3]; EGFR-mutated NSCLC) is given as 19.3-30.5 months and the “median progression-free survival (PFS)” value ([3]; EGFR-mutated NSCLC) is given as 9.7-10.8 months.

For `C=CC(=O)Nc1cc(Nc2nccc(-c3cn(C4CC4)c4ccccc34)n2)c(OC)cc1N(C)CCN(C)C` [almonertinib], the “intracranial ORR” value [2, 6] is given as 60.9%, the “updated ORR” value [2, 6] is given as 68.9% and the DCR ([2]; phase I trial) is given as 89%. For the same compound, the ORR ([2]; phase I trial) was 50% and the PFS ([2]; phase I trial) was 9.6 months.

In the case of `C=CC(=O)Nc1cccc(Oc2nc(Nc3ccc(N4CCN(C)CC4)c(F)c3)nc3[nH]ccc23)c1` [abivertinib], the “most common TRAEs” value [1] is given as “rash/diarrhea”.

In the case of `C=CC(=O)Nc1cc(Nc2nccc(-n3cc(CN(C)C)c(-c4ccccc4)n3)n2)c(OC)cc1N1CCOCC1` [lazertinib], the “most common TRAEs” value [1] is given as “rash/pruritis”.

In the case of `C#Cc1cccc(Nc2ncnc3cc4c(cc23)OCCOCCOCCO4)c1` [Icotinib], the “median OS” value [3] is given as 30.5 months and the “median PFS” value [3] is given as 11.2 months.
